Measured values published in paper PMC12302229, “Synergy of triazolyl substituents at C1 and C3 of galactose for high-affinity and selective galectin-4C inhibition” (RSC Chemical Biology, 2025).
Where “and” joins values, the source holds several entries; their conditions need not be identical. Identical values can stand only once. Like-named read-outs stand apart in the source and are kept apart here.

Assays:
galectin-4C [1] = target: T1, galectin-4C (Homo sapiens, UniProt P56470); conditions: cited from earlier work
T1 construct: made in house; host or cells: E. coli BL-21 (DE3)
T1 sequence (P56470 185-323): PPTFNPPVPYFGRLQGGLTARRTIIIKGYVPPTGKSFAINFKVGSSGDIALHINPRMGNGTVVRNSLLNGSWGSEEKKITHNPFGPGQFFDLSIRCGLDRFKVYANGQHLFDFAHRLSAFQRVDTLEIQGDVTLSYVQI

galectin-3 [2] = target: T2, galectin-3 (Homo sapiens, UniProt P17931); conditions: cited from earlier work
T2 construct: made in house
T2 sequence (P17931 whole entry): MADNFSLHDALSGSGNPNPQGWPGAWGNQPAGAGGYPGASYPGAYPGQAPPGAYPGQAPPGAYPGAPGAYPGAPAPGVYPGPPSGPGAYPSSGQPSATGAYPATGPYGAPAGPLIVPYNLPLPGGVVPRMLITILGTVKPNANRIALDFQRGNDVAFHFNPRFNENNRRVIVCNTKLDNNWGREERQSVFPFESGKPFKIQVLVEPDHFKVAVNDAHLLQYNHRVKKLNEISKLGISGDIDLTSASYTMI

galectin-1 [3] = target: T3, galectin-1 (Homo sapiens, UniProt P09382); conditions: cited from earlier work
T3 construct: made in house
T3 sequence (P09382 whole entry): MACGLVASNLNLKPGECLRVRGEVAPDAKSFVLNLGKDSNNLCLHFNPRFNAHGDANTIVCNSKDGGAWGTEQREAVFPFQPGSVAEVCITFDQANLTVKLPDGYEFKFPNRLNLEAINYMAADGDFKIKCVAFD

galectin-1 [4] = target: T3, galectin-1; test: competitive fluorescence polarization assay, galectin-1; format: binding; conditions: for Kd: fluorescence polarization, Kd and SEM from 3–6 single point measurements, read-out: Dissociation constants, Galectin-1
Experimental: (§1) Affinities of 1c–1z for galectin-1, -3, -4C, -4N, -7, -8C, -8N, -9C, and -9N were measured using an established fluorescence polarization assay[57] with reported probes and conditions.[19] […]
(§2) Fluorescence polarization experiments
(§3) Human galectin-11 and galectin-32 were expressed and purified as earlier described. Fluorescence polarization experiments were performed on a PheraStarFS plate reader with software PHERAstar Mars version 2.10 R3 (BMG, Offenburg, Germany). Specific experimental conditions were a galectin-1 concentration of 0.5 µM together with the fluorescent probe (3,3’-dideoxy-3-[4-(fluorescein-5-yl-carbonylaminomethyl)-1H-1,2,3-triazol-1-yl]-3’-(3,5-di-methoxybenzamido)-1,1’-sulfanediyl-di-β-D-galactopyranoside 1 concentration of 20 nM and a galectin-3 concentration of 0.2 µM together with the fluorescent probe (3,3’-dideoxy-3-[4-(fluorescein-5-yl-carbonylaminomethyl)-1H-1,2,3- […]
(§4) triazol-1-yl]-3’-(3,5-di-methoxybenzamido)-1,1’-sulfanediyl-di-β-D-galactopyranoside) concentration of 20 nM, respectively. Inhibitors were dissolved in dimethylsulfoxide (analytical grade) to a concentration of 20 mM, diluted with PBS to 3–6 different concentrations, and tested in duplicate twice for galectin affinity using a competitive fluorescence polarization assay as earlier described.3 The highest inhibitor concentrations tested were 1 mM due to solubility limitations at higher concentration. Dissociation constants average and SEM were calculated from two to eight single point measurements showing between 20–80% inhibition. […]

galectin-3 [5] = target: T2, galectin-3; test: competitive fluorescence polarization assay, galectin-3; conditions: Kd and SEM from 3–6 single point measurements, > values estimated, no apparent binding at highest concentration, read-out: Dissociation constants, Galectin-3
Experimental: as §1, §2, §3, §4

galectin-4C [6] = target: T1, galectin-4C; test: competitive fluorescence polarization assay, galectin-4C; format: binding; conditions: for Kd: fluorescence polarization, x/y cells = only two data points revealed inhibition, both shown, > values estimated, no apparent binding at highest concentration, read-out: Dissociation constants, Galectin-4C
Experimental: Affinities of 1c–1z for galectin-1, -3, -4C, -4N, -7, -8C, -8N, -9C, and -9N were measured using an established fluorescence polarization assay[57] with reported probes and conditions.[19]
Recombinant human galectin-4 C-terminal carbohydrate recognition domain was expressed and purified as previously reported.[57,70] Briefly, BL-21 (DE3) E. coli cells containing galectin-4C (amino acid sequence 185–323) was expressed, lysed by sonication and purified by affinity chromatography on a lactosyl-Sepharose column. Galectin-4C protein was eluted using 50 mM β-lactose in PBS, pH 7.4. Galectin-4C was then further gel purified using a Superdex 200/60 column (GE Healthcare) previously equilibrated in PBS, pH 7.4. The peak fractions collected containing galectin-4C were pooled and concentrated to 6.5 mg mL^−1 using an AmiconUltra 3K molecular weight cut-off centrifugal concentrator (Millipore, Billerica, MA, USA) and used directly in crystallisation studies. […]
as §4

[7] = Chart 1, known C1-galactosyl inhibitors, read-out: affinity, Galectin-4C
[8] = Chart 1, known C1-galactosyl inhibitors, read-out: affinity, Galectin-3
[9] = Chart 1, known C1-galactosyl inhibitors, read-out: affinity, Galectin-1

SMILES | Kd (galectin-1 [4]) [µM] | Kd (galectin-3 [5]) [µM] | Kd (galectin-4C [6]) | further results
OC[C@H]1O[C@@H](Cn2cc(-c3ccc(F)cc3)nn2)[C@H](O)[C@@H](O)[C@H]1O [Compound 3] |  |  |  | Kd (galectin-4C [1]; [7]): 1200 µM; Kd (galectin-3 [2]; [8]): 710 µM; Kd (galectin-1 [3]; [9]): 170 µM
OC[C@H]1O[C@@H](c2cn(-c3cccc(I)c3)nn2)[C@H](O)[C@@H](O)[C@H]1O [Compound 1f] | 1300 ± 220 | > 1000 |  | 
OC[C@H]1O[C@@H](c2cn(-c3ccc(Cl)cc3)nn2)[C@H](O)[C@@H](O)[C@H]1O [Compound 1b] |  |  |  | Kd (galectin-4C [1]; [7]): 760 µM; Kd (galectin-3 [2]; Table 1 reference compounds, read-out: Dissociation constants, Galectin-3): 1700 µM; Kd (galectin-1 [3]; Table 1 reference compounds, read-out: Dissociation constants, Galectin-1): 340 µM
OC[C@H]1O[C@@H](c2cn(-c3ccc(Cl)cn3)nn2)[C@H](O)[C@@H](O)[C@H]1O [Compound 1r] | 650 ± 3 | 490 ± 6 | > 2000 µM | 
OC[C@H]1O[C@@H](c2cn(-c3cc(Cl)ccc3F)nn2)[C@H](O)[C@@H](O)[C@H]1O [Compound 1m] | 580 ± 12 | 870 ± 140 | 1300 ± 260 µM | 
OC[C@H]1O[C@@H](Cn2cc(-c3ccc(C(F)(F)F)cc3)nn2)[C@H](O)[C@@H](O)[C@H]1O [Compound 4] |  |  |  | Kd (galectin-4C [1]; [7]): > 900 µM; Kd (galectin-3 [2]; [8]): 830 µM; Kd (galectin-1 [3]; [9]): 240 µM
OC[C@H]1O[C@@H](c2cn(-c3ccc(-c4ccccc4)cc3)nn2)[C@H](O)[C@@H](O)[C@H]1O [Compound 1t] | 970 ± 25 | 2000 ± 270 | 880 ± 82 µM | 
CO[C@@H]1O[C@H](CO)[C@@H](O[C@@H]2O[C@H](CO)[C@H](O)[C@H](O)[C@H]2O)[C@H](O)[C@H]1O [β-Me Lac, methyl β-lactoside] |  |  |  | Kd (galectin-4C [1]; Table 1 reference saccharides, read-out: Dissociation constants, Galectin-4C): 2900 µM; Kd (galectin-3 [2]; Table 1 reference saccharides, read-out: Dissociation constants, Galectin-3): 220 µM; Kd (galectin-1 [3]; Table 1 reference saccharides, read-out: Dissociation constants, Galectin-1): 190 µM
CS(=O)(=O)c1ccc(-n2cc([C@@H]3O[C@H](CO)[C@H](O)[C@H](O)[C@H]3O)nn2)cc1 [Compound 1v] | 780 ± 43 | 690 ± 70 | 2900 µM and 3500 µM | 
CC(=O)c1ccc(-n2cc([C@@H]3O[C@H](CO)[C@H](O)[C@H](O)[C@H]3O)nn2)cc1 [Compound 1x] | 970 ± 65 | 1200 ± 83 | 1900 ± 550 µM | 
OC[C@H]1O[C@@H](c2cn(-c3cccc(Br)c3)nn2)[C@H](O)[C@@H](O)[C@H]1O [Compound 1d, 4-(1-Deoxy-β-D-galactopyranosyl)-1-(3-bromophenyl)-1H-1,2,3-triazole] | 1400 ± 95 | 1600 ± 30 | > 2000 µM | 
OC[C@H]1O[C@@H](c2cn(-c3cccc(C(F)(F)F)c3)nn2)[C@H](O)[C@@H](O)[C@H]1O [Compound 1h] | 1500 ± 62 | 1300 ± 69 | 1500 µM and 2200 µM | 
CS(=O)(=O)c1cccc(-n2cc([C@@H]3O[C@H](CO)[C@H](O)[C@H](O)[C@H]3O)nn2)c1 [Compound 1w] | 1400 ± 85 | 1400 ± 70 | > 2000 µM | 
OC[C@H]1O[C@@H](c2cn(-c3ccccn3)nn2)[C@H](O)[C@@H](O)[C@H]1O [Compound 1z] | 150 ± 17 | 880 ± 100 | 2600 µM and 3100 µM | 
OC[C@H]1O[C@@H](c2cnc(-c3cccc4ccccc34)o2)[C@H](O)[C@@H](O)[C@H]1O [Compound 2] |  |  |  | Kd (galectin-4C [1]; [7]): 550 µM; Kd (galectin-3 [2]; as printed in the running text, read-out: galectin-3 affinity): 90 µM; Kd (galectin-1 [3]; [9]): 490 µM
OC[C@H]1O[C@@H](c2cn(-c3c(F)cccc3F)nn2)[C@H](O)[C@@H](O)[C@H]1O [Compound 1k] | 1300 ± 190 | 1200 ± 90 | > 2000 µM | 
OC[C@H]1O[C@@H](c2cn(-c3ccc(Br)cc3)nn2)[C@H](O)[C@@H](O)[C@H]1O [Compound 1c, 4-(1-Deoxy-β-D-galactopyranosyl)-1-(4-bromophenyl)-1H-1,2,3-triazole] | 140 ± 25 | 1400 ± 340 | 1400 µM and 1500 µM | selectivity for galectin-1 over galectin-3 (galectin-1 [4]; ratio of Kd): tenfold
OC[C@H]1O[C@@H](c2cn(-c3ccc(C(F)(F)F)cc3)nn2)[C@H](O)[C@@H](O)[C@H]1O [Compound 1g] | 1300 ± 320 | 1200 ± 31 | 2300 µM and 2600 µM | 
OC[C@H]1O[C@@H](c2cnc(-c3cccc4ccccc34)o2)[C@H](O)[C@@H](n2cc(-c3ccccc3)nn2)[C@H]1O [Compound 18] |  |  | 2.3 ± 0.4 µM | selectivity for galectin-4C over galectin-3 (galectin-4C [6]; ratio of Kd): 4 fold
OC[C@H]1O[C@@H](c2cn(-c3ccc(Cl)cc3F)nn2)[C@H](O)[C@@H](O)[C@H]1O [Compound 1l] | 300 ± 20 | 1200 ± 110 | > 2000 µM | 
O=[N+]([O-])c1ccc(-n2cc([C@@H]3O[C@H](CO)[C@H](O)[C@H](O)[C@H]3O)nn2)cc1 [Compound 1i] | 400 ± 5 | 1500 ± 67 | 910 ± 46 µM | 
O=[N+]([O-])c1cccc(-n2cc([C@@H]3O[C@H](CO)[C@H](O)[C@H](O)[C@H]3O)nn2)c1 [Compound 1j] | 1800 ± 64 | 1000 ± 23 | > 2000 µM | 
OC[C@H]1O[C@@H](c2cn(-c3ccc4c(c3)CCC4)nn2)[C@H](O)[C@@H](O)[C@H]1O [Compound 1u] | 2100 ± 73 | 1400 ± 160 | 2100 ± 490 µM | 
OC[C@H]1O[C@@H](c2cn(-c3ccc(Br)cc3F)nn2)[C@H](O)[C@@H](O)[C@H]1O [Compound 1o] | 310 ± 29 | 770 ± 89 | > 2000 µM | 
Cc1ccc(-n2cc([C@@H]3O[C@H](CO)[C@H](O)[C@H](O)[C@H]3O)nn2)cc1Cl [Compound 1q] | 1200 ± 240 | 1400 ± 38 | > 2000 µM | 
OC[C@H]1O[C@@H](c2cn(-c3ccc(I)cc3)nn2)[C@H](O)[C@@H](O)[C@H]1O [Compound 1e] | 460 ± 50 | > 1000 |  | 
OC[C@H]1O[C@@H](c2cn(-c3ccc(Cl)c(Cl)c3)nn2)[C@H](O)[C@@H](O)[C@H]1O [Compound 1p] | 1300 ± 200 | 660 ± 53 | 2300 µM and 2500 µM | 
CC(=O)c1cccc(-n2cc([C@@H]3O[C@H](CO)[C@H](O)[C@H](O)[C@H]3O)nn2)c1 [Compound 1y] | 1300 ± 260 | 1000 ± 200 | 2000 µM and 2700 µM | 
OC[C@H]1O[C@@H](c2cn(-c3nccs3)nn2)[C@H](O)[C@@H](O)[C@H]1O [Compound 1s] | 980 ± 7 | 910 ± 92 | > 2000 µM | 
OC[C@H]1O[C@@H](c2cn(-c3cccc(Cl)c3F)nn2)[C@H](O)[C@@H](O)[C@H]1O [Compound 1n] | 1100 ± 48 | > 1000 | > 2000 µM | 
